Experimental data from US10835500B2, “Medicament for accelerated wound healing” (Symrise AG, priority 2014, dated 2020).
“Also recorded” adds a separate entry of the source. Where two headings read alike, the source gives them in different places.

Tests used:
Type in all cases: cell-based, human
[1] = system: HaCaT cells; experiment: In vitro wound scratch assay, HaCaT cells; conditions: for faster closing of the scratch: HaCaT cells, 500 μM, observed for two days
Source text: (§1) The MAP kinases p38 and ERK1/2 are often associated with increased proliferation and migration in epidermal wound healing. For this reason, in a further physiological experiment, the effect of Sandalore® on “wound healing” of a confluent cell layer of HaCaT cells or primary keratinocytes was investigated. For this purpose, the wound scratch assay was used, which is an established in vitro method for initial investigations of wound healing processes in keratinocytes.
In order to investigate the role of the OR2AT4 receptor in this effect, a test was conducted to determine whether the two antagonists Oxyphenylon and Phenirat could again reduce the “wound healing” increased by Sandalore®. For this purpose, Sandalore® was mixed with one of the antagonists each in the same ratio, and the effect on “wound healing” of the HaCaT cells was again observed for 48 hours. […] The two antagonists alone had no effect on the “wound healing” (FIG. 18d). The role of the MAP kinases p38 and ERK1/2 was investigated by means of specific inhibitors of the kinases. For p38 MAPK, the […] SB203580 was used, and for ERK1/2 MAPK, the […] U0126 was used. […] The two inhibitors alone had no effect on the wound healing (FIG. 18d).
Effect of Sandalore® stimulation on human keratinocytes in an in vitro “wound healing” assay. Investigation of the “wound healing rate” of A) primary keratinocytes and B) HaCaT cells by means of a wound scratch assay in the presence of Sandalore® (500 μM) or 0.1% DMSO as a control. Left: Transmitted light images of the “wound” observed at various times. The growth margin of the cells was surrounded in black. Scale: 200 μm. Right: Quantitative evaluation of the wound scratch assay. The areas of the wounds were measured and compared to the initial wound (0 h). Mean values including standard error. Mann-Whitney U test; n=4 experiments. *: p<0.05; ***: p<0.001. C) Wound scratch assay in the presence of Sandalore® (500 μM) and one of the antagonists Oxyphenylon (500 μM) or Phenirat (500 μM) respectively, the p38 MAPK inhibitor 5B203580 (10 μM), or the ERK1/2 MAPK inhibitor U0126 (10 μM). The measured wound areas of the treated cells (after 48-hour stimulation) were compared to the control (0.1% DMSO). Mean values including standard error. Kruskal-Wallis test with multiple comparison; n=3 experiments. *: p<0.05. D) Controls for the wound scratch assay with Oxyphenylon (500 μM), Phenirat (500 μM), 5B203580 (10 μM), or U0126 (10 μM) carried out under C). The measured wound areas of the treated cells were compared to the control (0.1% DMSO). Mean value included.

[2] = system: HaCaT cells; experiment: Calcium imaging in HaCaT cells; conditions: for calcium signals on repeated stimulation: repeated application (500 μM in FIG. 9); for EC50: calcium signal amplitude, read-out: ECR50R value
Procedure: In the fourth application, saturation occurred at approx. 500 μM (FIG. 9d). The ECR50R value was 430 μM of Sandalore® in the first application and 112 μM of Sandalore® in the fourth application.
The Sandalore®-induced signal cascade in HaCaT cells and primary keratinocytes was pharmacologically characterized using the calcium imaging technique and specific blockers of signal cascade proteins. An investigation was first conducted in order to determine whether the calcium signals are caused by calcium inflow from the extracellular space. For this purpose, a calcium-free extracellular solution was used with a calcium chelator (EGTA) added. […] In order to investigate the role of adenylyl cyclase, the specific blockers SQ-22536 and MDL-12330A were used. […] The efficacy of the blockers was tested in this case with histamine, which activated the PLC signalling pathway (FIG. 11c). […]
In order to characterize the antagonists, HaCaT cells were first repeatedly stimulated with Sandalore® (1 mM). On the third application, costimulation (1:1) with Sandalore® and one of the antagonists took place. […] Based on this, dose-dependent characterization of inhibition was to be carried out. For this purpose, Sandalore® and the antagonists were costimulated with different concentrations.
Effect of the OR2AT4 ligand Sandalore® on intracellular calcium concentration of cultivated keratinocytes. […] 100 μM of ATP was used at the end of each measurement as a positive control stimulus. Right: Quantitative evaluation of calcium signals in 4-time application of Sandalore® (500 μM). Shown are the mean values of the individual applications including standard error. Mann-Whitney U test. *: p<0.05. C) and D): dose-dependent activation of HaCaT cells in calcium imaging experiments. Shown are the mean amplitudes including standard error at various concentrations in the first (C) and fourth (D) Sandalore® application. Number of cells measured: 0.0125 mM (39), 0.025 mM (30), 0.1 mM (46), 0.5 mM (34), 1 mM (63), 2 mM (41), 10 mM (36).
A) Representative calcium imaging traces of HaCaT cells (left) and primary keratinocytes (right) incubated with the gap junction blocker 1-octanol (500 μM) and then repeatedly stimulated with Sandalore® (500 μM, horizontal bars) (blue trace). […] 100 μM of ATP was used at the end of each measurement as a positive control stimulus. Quantitative evaluation of HaCaT cells (B) and primary keratinocytes (C) incubated with the gap junction blockers 1-octanol (500 μM) or carbenoxolone (10 μM) and then repeatedly stimulated with Sandalore® (500 μM) or Lyral (1 mM) in calcium imaging experiments. Shown are the mean values of the individual applications including standard error relative to the control measurements (Sandalore® application without blocker). Mann-Whitney U test. Number of cells measured: Sandalore®+1-octanol (HaCaT (110), keratinocytes (26)); Sandalore®+carbenoxolone: HaCaT (74); Lyral+carbenoxolone: HaCaT (43). ***: p<0.001.
Pharmacological characterization of Sandalore®-induced signal cascade in human keratinocytes. A)-D). Shown are representative calcium imaging traces of primary keratinocytes in the presence of a blocker (blue). The horizontal bars correspond to the application times. 100 μM of ATP was used at the end of each measurement as a positive control stimulus. A) Measurement with calcium-free extracellular solution (+10 mM EGTA). B) Measurement with the adenylyl cyclase blocker SQ-22536 (100 μM). C) Use of the phospholipase-C blocker U-73122 (10 μM). 100 μM of histamine was taken as a positive control. D) Measurement with the CNG channel blocker L-cis-diltiazem (150 μM). E) Overview of pharmacological measurement of HaCaT cells and primary keratinocytes (Kera). The mean amplitudes relative to the control measurements (dashed line) are indicated. MDL-12330A (40 μM). […]

[3] = system: primary keratinocytes; experiment: In vitro wound scratch assay, primary keratinocytes; conditions: 500 μM, observed for two days
Source text: as §1
Effect of Sandalore® stimulation on human keratinocytes in an in vitro “wound healing” assay. Investigation of the “wound healing rate” of A) primary keratinocytes and B) HaCaT cells by means of a wound scratch assay in the presence of Sandalore® (500 μM) or 0.1% DMSO as a control. Left: Transmitted light images of the “wound” observed at various times. The growth margin of the cells was surrounded in black. Scale: 200 μm. Right: Quantitative evaluation of the wound scratch assay. The areas of the wounds were measured and compared to the initial wound (0 h). Mean values including standard error. Mann-Whitney U test; n=4 experiments. *: p<0.05; ***: p<0.001. […] The measured wound areas of the treated cells (after 48-hour stimulation) were compared to the control (0.1% DMSO). […] The measured wound areas of the treated cells were compared to the control (0.1% DMSO). […]

`CC(=O)CCc1ccc(O)cc1` [Oxyphenylon] was tested, and the “Sandalore-increased wound healing on coincubation” value ([1]; HaCaT, 48 hours, Sandalore 500 μM + antagonist 500 μM or inhibitor 10 μM) was “reduced “wound healing” to the normal level”, the “effect of the substance alone on wound healing” value ([1]; HaCaT, antagonist 500 μM or inhibitor 10 μM alone) was “no effect” and the “inhibitory action on Sandalore-induced calcium signals” value ([2]; Sandalore 500 μM + antagonist 100 μM) was “disappeared completely”. For the same compound, the “amplitude heights, % of the control amplitudes” value ([2]; Sandalore 500 μM + antagonist 250 μM) was 39%, the “calcium signals, % of the control amplitude (Sandalore without antagonists)” value ([2]; Sandalore 500 μM + antagonist 500 μM) was 8% and the “blocking of Sandalore-induced calcium signals” value ([2]; antagonist 500 μM, Sandalore 750 μM) was “decreased”. The “inhibition of Sandalore-induced calcium signals” value ([2]; antagonist 500 μM, Sandalore 1 mM) was “completely eliminated”, the IC50 ([2]; inhibition of calcium signals induced by 500 μM Sandalore, read-out: IC50 values (mean inhibitory concentrations)) was 174 µM and the “effect on Sandalore-induced calcium signals on coapplication” value ([2]; third application, costimulation 1:1 with Sandalore 1 mM) was “significant reduction”.
With `CC1=CCC(CCC(C)CO)C1(C)C` (stereo not shown) [Brahmanol®] the “faster closing of the scratch” value [3] was 34%, the “faster closing of the scratch” value [1] was 26% and the “calcium signals on repeated stimulation” value ([2]; HaCaT cells) was “significant sensitization”.
`CC1=CCC(CCC(C)C(C)O)C1(C)C` (stereo not shown) [Sandalore®] was tested, and the “faster closing of the scratch” value [3] was 34%, the “faster closing of the scratch” value [1] was 26% and the “share of cells repeatedly stimulated” value ([2]; HaCaT cells, calcium imaging) was 80-90%. The “calcium signals on repeated stimulation” value ([2]; HaCaT cells) was “significant sensitization; also recorded: induced calcium signals”, the “calcium signals on repeated stimulation” value ([2]; HaCaT cells, listed as Sandalore) was “significant sensitization” and the “concentration at which dose-dependent activation begins” value ([2]; amplitude of the first application) was 100 µM. For the same compound, the EC50 ([2]; first application) was 430 µM, the EC50 ([2]; fourth application) was 112 µM and the “concentration from which saturation is reached” value ([2]; first application) was “approx. 2 mM”. For the same compound, the “concentration at which saturation occurred” value ([2]; fourth application) was “approx. 500 μM”.
